From patent publication US20140299020A1, “WATER-BASED BLACK INK COMPOSITION, INKJET RECORDING METHOD USING SAME, AND COLORED BODY” (NIPPON KAYAKU KABUSHIKI KAISHA, priority 2011, published 2014)

test: Solubility with respect to water at room temperature; assay type: physicochemical; settings: lithium salt

Compound	solubility [mg/mL]
Nc1c(N=Nc2ccc3c(O)c(N=Nc4ccc(N=Nc5ccc(S(=O)(=O)O)cc5)cc4S(=O)(=O)O)c(S(=O)(=O)O)cc3c2S(=O)(=O)O)cc(S(=O)(=O)O)c2cc(S(=O)(=O)O)c(N=Nc3ccc(S(=O)(=O)O)cc3[N+](=O)[O-])c(O)c12 [Compound 3]	≥ 100
Cc1cc(N=Nc2c(S(=O)(=O)O)cc3c(S(=O)(=O)O)c(N=Nc4cc(S(=O)(=O)O)c5cc(S(=O)(=O)O)c(N=Nc6ccc([N+](=O)[O-])cc6S(=O)(=O)O)c(O)c5c4N)ccc3c2O)c(OCCCS(=O)(=O)O)cc1N=Nc1ccc([N+](=O)[O-])cc1S(=O)(=O)O [Compound 16]	≥ 100
Nc1c(N=Nc2ccc3c(O)c(N=Nc4ccc(N=Nc5ccc(S(=O)(=O)O)cc5)cc4S(=O)(=O)O)c(S(=O)(=O)O)cc3c2S(=O)(=O)O)cc(S(=O)(=O)O)c2cc(S(=O)(=O)O)c(N=Nc3ccc([N+](=O)[O-])cc3S(=O)(=O)O)c(O)c12 [Compound 1]	≥ 100
